{"source": "patent US20240358678A1", "about": "“METHODS AND COMPOSITIONS FOR ENHANCING CHEMOTHERAPEUTIC DRUG UPTAKE INTO BRAIN TUMORS” (Brown University, priority 2023, published 2024)", "key": {"HCMEC/D3 cells [1]": {"tested_on": "HCMEC/D3 cells", "test": "Bulk RNA-sequencing of HCMEC/D3 cells treated with BIA", "assay_type": "cell-based, human", "protocol": "RNA-sequencing of HCMEC/D3 cells treated with BIA: For RNA-sequencing, HCMEC/D3 cells were plated at a density of 500,000 cells/well in a 6-well plate. Left to grow for 24 hours, and then treated with 1 μM of BIA or DMSO (control). After 24 hours, cells were collected and processed for RNA extraction using the column-based RNeasy kit (QIAGEN), following provider's instructions. RNA quality and quantity were quantified using a Nanodrop™ One (Invitrogen). At least 500 ng of RNA was submitted for bulk RNA-sequencing at GeneWiz (Azenta Life Sciences). QC was accessed, and library was prepared with Poly(A) selection. Sequencing was performed using Illumina HiSeq.\nDifferential gene expression on the RNA-seq raw data (FASTQ files) was analyzed by Azenta Life Sciences using DESeq2 aligning to human transcriptome. Data QC was verified. Log2 fold change (Log 2FC) was calculated by Log2 (BIA group mean normalized counts/Control group mean normalized counts). The Wald test p-value and Benjamini-Hochberg adjusted p-value were calculated. A heatmap and volcano plot of top adjusted p-value differentially expressed genes (DEGs) in ensemble ID annotation bi-clustering to treatment conditions were generated. Control and BIA groups consisted of three-independent samples."}, "HCMEC/D3 cells [2]": {"tested_on": "HCMEC/D3 cells", "test": "Real-time PCR for CDH5 in HCMEC/D3 cells", "assay_type": "cell-based, human", "settings": "1 μM BIA, up to 48 hours", "protocol": "(§1) Real-time PCR: Total RNA from GBM and HCMEC/D3 cells was obtained and processed as indicated above. For cDNA generation, we used 1 μg of RNA and processed with the iScript™ cDNA synthesis kit (BioRad), following the protocol indicated by the provider. All primers were designed using NCBI Primer-Blast tool. Detailed information on primer sequences can be found in FIG. 25 (Supplementary Table 3). Gene expression levels were quantified using PowerUp SYBR Green Master Mix (Applied Biosciences) on QuantStudio 6 Pro System (Applied Biosciences), normalized by housekeeping gene GAPDH expression and represented as relative expression using comparative ΔΔCT method."}, "HBMEC cells": {"tested_on": "HBMEC cells", "test": "Real-time PCR for CDH5 in HBMEC cells", "assay_type": "cell-based, human", "settings": "1 μM BIA, up to 48 hours"}, "G34 GBM cells": {"tested_on": "G34 GBM cells", "test": "Real-time PCR in G34-PCDH neurosphere GBM cells", "assay_type": "cell-based, human", "settings": "BIA 2 μM, 24 hours", "protocol": "as §1"}, "HCMEC/D3 cells [3]": {"tested_on": "HCMEC/D3 cells", "test": "Cell titer Glo viability assay on HCMEC/D3", "assay_type": "cell-based, human", "settings": "~1-5 μM BIA, 72 hours", "protocol": "Cell viability assay: Cells were plated at a density of 1500 cells/well in black-well clear bottom 96-well plates and left growing in culture conditions overnight. Next day, cells were treated with titrating doses of the indicated compounds. […] For BIA and cisplatin combinatorial studies, cells were incubated with BIA and cisplatin, and corresponding controls, for 5 days. Next, we used the Cell-Titer Glo 3D (Promega) following provider's guidelines and quantified for luminescence signal using a Molecular Devices SpectraMax M2 plate reader. Conditions were repeated in triplicates."}, "HCMEC/D3 cells [4]": {"tested_on": "HCMEC/D3 cells", "test": "Human phospho-kinase array of HCMEC/D3 cells", "assay_type": "cell-based", "protocol": "Phospho-kinase array: HCMEC/D3 cells were plated at a density of 1 million cells and treated with either 1 μM BIA or vehicle DMSO for 24 hr. Cell lysates were collected with manufacturer provided Lysis Buffer 6 supplemented with 10 μg/mL Aprotinin (Tocris), 10 μg/mL Leupeptin hemisulfate (Tocris) and 10 μg/mL Pepstatin A (Tocris) for protein preservation. 50 μg of lysate from each sample were loaded into each membrane. All experiment procedures were performed using the Proteome Profiler Human Phospho-Kinase Array Kit (R&D Systems) following manufacturer's protocol."}, "[5]": {"tested_on": "G9-PCDH and G34-PCDH cells", "test": "Platinum levels in GBM cells treated with BIA and cisplatin", "assay_type": "cell-based, human", "settings": "2 μM BIA and cisplatin simultaneously"}, "[6]": {"tested_on": "patient-derived GBM neuro-spheres", "test": "GBM neuro-sphere cell viability assay (Cell-Titer Glo 3D), BIA and cisplatin", "assay_type": "cell-based, human", "settings": "BIA 1 μM, 5 days", "protocol": "Cell viability assay: Cells were plated at a density of 1500 cells/well in black-well clear bottom 96-well plates and left growing in culture conditions overnight. Next day, cells were treated with titrating doses of the indicated compounds. For BIA only cytotoxicity studies, cells were incubated with BIA for 96 hours. For BIA and cisplatin combinatorial studies, cells were incubated with BIA and cisplatin, and corresponding controls, for 5 days. Next, we used the Cell-Titer Glo 3D (Promega) following provider's guidelines and quantified for luminescence signal using a Molecular Devices SpectraMax M2 plate reader. Conditions were repeated in triplicates."}, "[7]": {"test": "Hydrophobicity / dissolution in physiological solutions", "assay_type": "physicochemical", "settings": "difficult to dissolve in physiological solutions"}, "[8]": {"tested_on": "human brain microvascular endothelial cell monolayers", "test": "RNA sequencing of HBMEC monolayers (Example 3)", "assay_type": "cell-based", "settings": "BiA 1 μM, 24 hours", "protocol": "RNA Sequencing (RNAseq): RNA sequencing was performed by the Dana Faber molecular biology core according to their standard methods. RNA was prepared from human brain microvascular endothelial cell monolayers after 24 hours treatment with BiA. EXAMPLE 1 EFFECT OF INDIRUBIN ON THE BLOOD-TUMOR BARRIER (BTB)\nIn order to assess changes in gene expression profiles induced by alterations to barrier functions induced by indirubin, RNA sequencing was performed RNA prepared from human brain microvascular endothelial cell monolayers after 24 hours treatment with BiA. HBMEC monolayers were treated with BiA (1 μM) for 24 hours and gene expression profiles compared with untreated controls."}, "murine GBM models": {"tested_on": "murine GBM models", "settings": "cited from earlier work"}}}
{"compound": "CC(=O)ON=C1C(=C2C(=O)Nc3cc(Br)ccc32)Nc2ccccc21", "note": "[BIA, 6-bromoindirubin acetoxime]", "values": [{"measurement": "ERG expression", "setting": "HCMEC/D3 cells [1]", "result": "downregulation of ERG"}, {"measurement": "expression of WNT4, WNT10A and WNT11 ligands", "setting": "HCMEC/D3 cells [1]", "result": "increase of expression"}, {"measurement": "expression of WNT7B and WNT ligand receptors FZD4 and FZD7", "setting": "HCMEC/D3 cells [1]", "result": "decrease"}, {"measurement": "CDH5 gene expression change upon BIA treatment", "setting": "HCMEC/D3 cells [1]; BIA 1 μM, 24 hrs", "result": "−3.06 fold, log 2"}, {"measurement": "PCDH12 expression", "setting": "HCMEC/D3 cells [1]; BIA 1 μM, 24 hrs", "result": "increased its expression"}, {"measurement": "expression of PHGDH, AXIN2, TCF7, VLDLR and VEGFA", "setting": "HCMEC/D3 cells [1]; BIA 1 μM, 24 hrs", "result": "promoted expression"}, {"measurement": "expression of angiogenesis-related genes MMRN2, CD93, ACVRL1, KDR, SMAD6 and S1PR3", "setting": "HCMEC/D3 cells [1]; BIA 1 μM, 24 hrs", "result": "downregulated"}, {"measurement": "significantly downregulated differentially expressed genes", "setting": "HCMEC/D3 cells [1]; BIA 1 μM, 24 hrs", "result": 652, "unit": "genes"}, {"measurement": "significantly upregulated differentially expressed genes", "setting": "HCMEC/D3 cells [1]; BIA 1 μM, 24 hrs", "result": 862, "unit": "genes"}, {"measurement": "BTB-genes modulated by BIA", "setting": "HCMEC/D3 cells [1]; of the 12 BTB-genes of the in-silico screening", "result": "8 of the 12"}, {"measurement": "CDH5 expression at the transcriptional level", "setting": "HCMEC/D3 cells [2]", "result": "decreased expression"}, {"measurement": "CDH5 expression at the transcriptional level", "setting": "HBMEC cells", "result": "decreased expression"}, {"measurement": "CDH5 expression", "setting": "G34 GBM cells", "result": "reduced the expression"}, {"measurement": "WNT7B and S1PR3 expression", "setting": "G34 GBM cells", "result": "diminishment"}, {"measurement": "reduction of viability", "setting": "HCMEC/D3 cells [3]", "result": "up to 30%"}, {"measurement": "activity of endothelial nitric oxide synthase (eNOS) and the p38a/CREB axis", "setting": "HCMEC/D3 cells [4]", "result": "decreased activity"}, {"measurement": "phosphorylation of MAPK family (p38a, JNK1, MSK1/2, ERK1/2), SRC family (SRC, YES, FGR) and transcription factors (CREB, STAT1, STAT2, STAT5a/b, c-JUN)", "setting": "HCMEC/D3 cells [4]; 1 μM BIA, 24 hours", "result": "decrease of activating phosphorylation"}, {"measurement": "phosphorylation of STAT3 and p70 S6 kinase", "setting": "HCMEC/D3 cells [4]; 1 μM BIA, 24 hours", "result": "phosphorylation of STAT3 at S727 and Y705"}, {"measurement": "cellular drug (platinum) accumulation due to BIA addition", "setting": "[5]", "result": "did not observe any advantage in drug accumulation"}, {"measurement": "cell viability, BIA single-treatment", "setting": "[6]", "result": "reduced the cell viability of cells mildly"}, {"measurement": "hydrophobicity", "setting": "[7]", "result": "highly hydrophobic"}, {"measurement": "gene expression pathways (TGF-β, Wnt signaling, angiogenesis/BTB)", "setting": "[8]", "result": "alteration to major pathways"}, {"measurement": "tumor migration and growth (previously reported)", "setting": "murine GBM models; GBM in vitro and in vivo", "result": "halted tumor migration and growth in vitro and in vivo"}, {"measurement": "angiogenesis of intra-cranial murine GBM models (previously reported)", "setting": "murine GBM models; mouse, in vivo", "result": "reduced angiogenesis"}]}
